Among the data in patent publication EP0318860B1, “Substituted alkylamine derivatives” (BANYU PHARMACEUTICAL CO., LTD., priority 1987, dated 1989) are IC50 values, retold here.

Structures are written as SMILES. Structures can show the parent of a compound that is named as a salt.

For the assay, the target named is T1, rat squalene epoxidase (Rattus norvegicus, UniProt P52020).
T1 construct: Livers were extracted and homogenized; from tissue; host or cells: liver of SD-strain female rats; microsomes solubilized with 2 % Triton X-100, 105000 x g supernatant
Kind of assay: Squalene epoxidase inhibiting activity (3H-squalene to squalene-2,3-epoxide, solubilized liver microsome fraction). The format is biochemical. The settings on record: 8 µM 3H-squalene, 37 °C, 30 minutes, read-out: 50 % inhibitory concentration (IC50). The procedure:
The rat squalene epoxidase was prepared by the method described in J. Biol. Chem., vol.
SD-strain female rats were killed by exsanguination. Livers were extracted and homogenized with in the presence of 2 volumes of 0.1M Tris-HCl buffer (pH 7.5). The homogenate was centrifuged at 9750 Xg for 10 minutes. The supernatant fraction was further centrifuged at 105000 Xg for 1 hour. The sediment was washed with 0.1M Tris-HCl buffer (pH 7.5), and then centrifuged at 105000 Xg for 1 hour. The microsomes obtained were suspended in 0.1M Tris-HCl buffer (pH 7.5) so that the amount of proteins was 40 mg/ml, and under ice cooling, the suspension was stirred in the presence of 2 % Triton X-100 to solubilize the enzyme. After the solubilization, the solution was diluted to a Triton X-100 concentration of 0.5 % with 1 mM EDTA and 1 mM dithiothreitol, and centrifuged at 105000 Xg for 1 hour. The resulting supernatant fraction was used in the following test as a squalene epoxidase fraction.
The squalene epoxidase activity was assayed in accordance with the method described in J. Biol. Chem., vol.
Three microliters of a dimethyl sulfoxide solution of a test drug was added to a solution composed of 0.2 ml of the squalene epoxidase fraction prepared in (1) [proteins 0.4 mg, 0.5 % Triton X-100, […] Tris-HCl buffer (pH 7.5)], 100 µM FAD, 1 mM NADPH, 1 mM EDTA and 8 µM ³H-squalene-Tween 80 emulsion to adjust the total amount of the solution to 0.3 ml. The solution was incubated at 37 °C for 30 minutes with shaking. Then, 0.3 ml of a 10 % methanolic potassium hydroxide was added to stop the reaction, and the reaction mixture was left to stand at room temperature for 1 hour. The non-saponified material was extracted with petroleum ether, and the solvent was evaporated under a nitrogen stream. […] The position of the resulting ³H-squalene-2,3-epoxide on TLC was determined using ergosterol acetate as a marker, and the ³H-squalene-2,3-epoxide portion on the TLC was cut off. The TLC strip was immersed in a toluene-type scintillator, and measured by a liquid scintillation counter.
Background: Liver microsomes are vesicles of endoplasmic reticulum, rich in cytochrome P450 enzymes.

T1 sequence (P52020 whole entry): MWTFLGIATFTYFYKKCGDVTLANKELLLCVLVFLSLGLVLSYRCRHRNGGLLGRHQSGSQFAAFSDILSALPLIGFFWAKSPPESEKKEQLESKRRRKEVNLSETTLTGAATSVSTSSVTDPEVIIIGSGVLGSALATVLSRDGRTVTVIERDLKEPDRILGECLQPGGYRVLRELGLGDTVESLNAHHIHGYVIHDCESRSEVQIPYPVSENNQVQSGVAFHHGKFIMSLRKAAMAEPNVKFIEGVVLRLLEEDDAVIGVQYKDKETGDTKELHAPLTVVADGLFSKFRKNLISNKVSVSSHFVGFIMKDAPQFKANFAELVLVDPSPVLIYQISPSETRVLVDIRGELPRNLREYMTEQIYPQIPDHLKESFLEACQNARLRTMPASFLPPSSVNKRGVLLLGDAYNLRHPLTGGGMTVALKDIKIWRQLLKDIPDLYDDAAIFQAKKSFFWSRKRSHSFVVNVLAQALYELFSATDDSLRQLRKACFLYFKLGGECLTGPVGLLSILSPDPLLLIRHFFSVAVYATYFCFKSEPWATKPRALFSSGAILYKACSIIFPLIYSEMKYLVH

As to `CC(C)(C)C#C/C=C/CNCc1cccc(OCc2ccccc2)c1` [Compound 1, (E)-N-(6,6-dimethyl-2-hepten-4-ynyl)-3-benzyloxybenzylamine], the IC50 was determined as 6.8 µM. `CN(C/C=C/C#CC(C)(C)C)Cc1cccc(OCc2cccc(Cl)c2)c1` [Compound 8, (E)-N-(6,6-dimethyl-2-hepten-4-ynyl)-N-methyl-3-(3-chlorobenzyloxy)benzylamine]: the IC50 is 2.9 µM. For the compound `CN(C/C=C/C#CC(C)(C)C)Cc1cccc(OCc2ccc(F)cc2)c1` [Compound 10, (E)-N-(6,6-dimethyl-2-hepten-4-ynyl)-N-methyl-3-(4-fluorobenzyloxy)benzylamine], the IC50 stood at 4.7 µM. `COc1ccc(COc2cccc(CN(C)C/C=C/C#CC(C)(C)C)c2)cc1` [Compound 12, (E)-N-(6,6-dimethyl-2-hepten-4-ynyl)-N-methyl-3-(4-methoxybenzyloxy)benzylamine]: the IC50 is 6 µM. With `CC(Oc1cccc(CN(C)C/C=C/C#CC(C)(C)C)c1)c1ccccc1` (stereo not drawn) [Compound 16, (E)-N-(6,6-dimethyl-2-hepten-4-ynyl)-N-methyl-3-(alpha-phenethyloxy)benzylamine], the IC50 amounted to 1.4 µM. The value for `CN(C/C=C\C#CC(C)(C)C)Cc1cccc(OCc2cccc3ccccc23)c1` [Compound 19, (Z)-N-(6,6-dimethyl-2-hepten-4-ynyl)-N-methyl-3-(1-naphthylmethyloxy)benzylamine] was 3.1 µM. As to `Cc1ccc(CN(C)C/C=C/C#CC(C)(C)C)cc1OCc1ccccc1` [Compound 28, (E)-(6,6-dimethyl-2-hepten-4-ynyl)-N-methyl-3-benzyloxy-4-methylbenzylamine], the IC50 stood at 5.6 µM. The value for `CN(C/C=C/C#CC(C)(C)C)Cc1cccc(OCc2ccco2)c1` [Compound 34, (E)-N-(6,6-dimethyl-2-hepten-4-ynyl)-N-methyl-3-furfuryloxybenzylamine] was 1.7 µM; that for `C=CCN(C/C=C/C#CC(C)(C)C)Cc1cccc(OCc2ccccc2)c1` [Compound 41, (E)-N-allyl-N-(6,6-dimethyl-2-hepten-4-ynyl)-3-benzyloxybenzylamine] was 2.1 µM; that for `C#CCN(C/C=C/C#CC(C)(C)C)Cc1cccc(OCc2ccccc2)c1` [Compound 42, (E)-N-(6,6-dimethyl-2-hepten-4-ynyl)-N-propargyl-3-benzyloxybenzylamine] was 9.6 µM.

Take `CC(C)(C)C#C/C=C/CN(Cc1cccc(OCc2ccccc2)c1)C1CC1` [Compound 43, (E)-N-cyclopropyl-N-(6,6-dimethyl-2-hepten-4-ynyl)-3-benzyloxybenzylamine]: the IC50 is 3.9 µM. For the compound `Cc1cc(CN(C)C/C=C/C#CC(C)(C)C)cc(OCc2ccccc2)c1` [Compound 48, (E)-N-(6,6-dimethyl-2-hepten-4-ynyl)-N-methyl-3-benzyloxy-5-methylbenzylamine hydrochloride], the IC50 is 5.1 µM. As for `CN(C/C=C/C#CC(C)(C)C)Cc1ccc(F)c(OCc2ccccc2)c1` [Compound 49, (E)-N-(6,6-dimethyl-2-hepten-4-ynyl)-N-methyl-3-benzyloxy-4-fluorobenzylamine], the IC50 was found to be 4.9 µM. As to `CN(C/C=C/C#CC(C)(C)C)Cc1ccc(O)c(OCc2ccccc2)c1` [Compound 50, (E)-N-(6,6-dimethyl-2-hepten-4-ynyl)-N-methyl-3-benzyloxy-4-hydroxybenzylamine hydrochloride], the IC50 came out at 2.1 µM. `COc1ccccc1COc1cccc(CN(C)C/C=C/C#CC(C)(C)C)c1` [Compound 51, (E)-N-(6,6-dimethyl-2-hepten-4-ynyl)-N-methyl-3-(2-methoxybenzyloxy)benzylamine hydrochloride]: the IC50 was 1.1 µM. With `COc1cccc(COc2cccc(CN(C)C/C=C/C#CC(C)(C)C)c2)c1` [Compound 52, (E)-N-(6,6-dimethyl-2-hepten-4-ynyl)-N-methyl-3-(3-methoxybenzyloxy)benzylamine hydrochloride], the IC50 is 1.4 µM. As to `Cc1cccc(COc2cccc(CN(C)C/C=C/C#CC(C)(C)C)c2)c1` [Compound 53, (E)-N-(6,6-dimethyl-2-hepten-4-ynyl)-N-methyl-3-(3-methylbenzyloxy)benzylamine], the IC50 was 0.66 µM. On to `Cc1ccc(COc2cccc(CN(C)C/C=C/C#CC(C)(C)C)c2)cc1` [Compound 54, (E)-N-(6,6-dimethyl-2-hepten-4-ynyl)-N-methyl-3-(4-methylbenzyloxy)benzylamine], for which the IC50 worked out at 1.8 µM. Consider `Cc1cccc(COc2cccc(CN(C)C/C=C/C#CC(C)(C)C)c2)c1C` [Compound 55, (E)-N-(6,6-dimethyl-2-hepten-4-ynyl)-N-methyl-3-(2,3-dimethylbenzyloxy)benzylamine hydrochloride], for which the IC50 was 0.6 µM. As to `CN(C/C=C/C#CC(C)(C)C)Cc1cccc(OCc2ccccc2Cl)c1` [Compound 56, (E)-N-(6,6-dimethyl-2-hepten-4-ynyl)-N-methyl-3-(2-chlorobenzyloxy)benzylamine], the IC50 stood at 2.1 µM. Then `CN(C/C=C/C#CC(C)(C)C)Cc1cccc(OCc2cccc(C(F)(F)F)c2)c1` [Compound 57, (E)-N-(6,6-dimethyl-2-hepten-4-ynyl)-N-methyl-3-(3-trifluoromethylbenzyloxy)benzylamine hydrochloride], with 3.1 µM; and `CN(C/C=C/C#CC(C)(C)C)Cc1cccc(OCCCc2ccccc2)c1` [Compound 58, (E)-N-(6,6-dimethyl-2-hepten-4-ynyl)-N-methyl-3-(3-phenylpropoxy)benzylamine hydrochloride], with 7.9 µM; and `CCc1ccccc1COc1cccc(CN(C)C/C=C/C#CC(C)(C)C)c1` [Compound 62, (E)-N-(6,6-dimethyl-2-hepten-4-ynyl)-N-methyl-3-(2-ethylbenzyloxy)benzylamine hydrochloride], with 0.36 µM. Regarding `CN(C/C=C/C#CC(C)(C)C)Cc1cccc(OC/C=C/c2ccccc2)c1` [Compound 63, N-[(E)-6,6-dimethyl-2-hepten-4-ynyl]-N-methyl-3-[(E)-3-phenyl-2-propenyloxy]benzylamine hydrochloride], the IC50 is 5.4 µM. Then `CN(C/C=C/C#CC(C)(C)C)Cc1cccc(OCc2cccc(O)c2)c1` [Compound 65, (E)-N-(6,6-dimethyl-2-hepten-4-ynyl)-N-methyl-3-(3-hydroxybenzyloxy)benzylamine], with 4.6 µM; and `CN(C/C=C/C#CC(C)(C)C)Cc1cccc(OCc2ccccc2F)c1` [Compound 66, (E)-N-(6,6-dimethyl-2-hepten-4-ynyl)-N-methyl-3-(2-fluorobenzyloxy)benzylamine hydrochloride], with 1.2 µM; and `CN(C/C=C/C#CC(C)(C)C)Cc1cccc(OCc2ccccc2C#N)c1` [Compound 67, (E)-N-(6,6-dimethyl-2-hepten-4-ynyl)-N-methyl-3-(2-cyanobenzyloxy)benzylamine hydrochloride], with 2.4 µM.

Consider `CN(C/C=C/C#CC(C)(C)C)Cc1cccc(OCc2ccccc2C(F)(F)F)c1` [Compound 68, (E)-N-(6,6-dimethyl-2-hepten-4-ynyl)-N-methyl-3-(2-trifluoromethylbenzyloxy)benzylamine hydrochloride], for which the IC50 came to 1.2 µM. Then `C=C(C)c1cccc(COc2cccc(CN(C)C/C=C/C#CC(C)(C)C)c2)c1` [Compound 69, (E)-N-(6,6-dimethyl-2-hepten-4-ynyl)-N-methyl-3-(3-isopropenylbenzyloxy)benzylamine], with 0.51 µM. With `CC(C)=Cc1cccc(COc2cccc(CN(C)C/C=C/C#CC(C)(C)C)c2)c1` [Compound 70, (E)-N-(6,6-dimethyl-2-hepten-4-ynyl)-N-methyl-3-[3-(2-methyl-1-propenyl)benzyloxy]benzylamine], the IC50 came to 3.1 µM.

On to `C=C(C)Cc1cccc(COc2cccc(CN(C)C/C=C/C#CC(C)(C)C)c2)c1` [Compound 71, (E)-N-(6,6-dimethyl-2-hepten-4-ynyl)-N-methyl-3-[3-(2-methyl-2-propenyl)benzyloxy]benzylamine], for which the IC50 was 0.54 µM. For the compound `CC(C)=CCc1cccc(COc2cccc(CN(C)C/C=C/C#CC(C)(C)C)c2)c1` [Compound 72, (E)-N-(6,6-dimethyl-2-hepten-4-ynyl)-N-methyl-3-[3-(3-methyl-2-butenyl)benzyloxy]benzylamine], the IC50 stood at 9.7 µM. As for `CC(C)=CCOc1cccc(COc2cccc(CN(C)C/C=C/C#CC(C)(C)C)c2)c1` [Compound 73, (E)-N-(6,6-dimethyl-2-hepten-4-ynyl)-N-methyl-3-[3-(3-methyl-2-butenyloxy)benzyloxy]benzylamine], the IC50 was 2.3 µM.
